Where two headings read alike, the source gives them in different places.
Biological target: T1, recombinant HTLV-1 IN (Human T-cell leukemia virus 1, UniProt P03362)
T1 construct: made in house
Assay: In vitro integration strand transfer assay with HTLV-1 IN
Format: biochemical
Details: for HTLV-1 IN strand transfer activity (No drug = 100): INSTI at 634 nM
Summary of the method: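 Recombinant HTLV-1 IN (4 μg) with annealed 3′-processed LTR donor DNA (0.53 μM) preincubated 15 min RT with compound (screen at 634 nM) in PIPES pH 6.0, NaCl, MgCl2, ZnCl2, DTT; supercoiled plasmid target added, 1 h 37 °C. Concerted integration product quantified by agarose-gel densitometry; IC50 from dose–response fits, triplicate.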

[1] = Replicate 1, read-out: HTLV-1 IN strand transfer IC50
[2] = Replicate 2, read-out: HTLV-1 IN strand transfer IC50
[3] = Replicate 3, read-out: HTLV-1 IN strand transfer IC50
[4] = integrase strand-transfer drug titration, n = 3, read-out: HTLV-1 IC50 ± stdev

T1 sequence (P03362 1168-1462): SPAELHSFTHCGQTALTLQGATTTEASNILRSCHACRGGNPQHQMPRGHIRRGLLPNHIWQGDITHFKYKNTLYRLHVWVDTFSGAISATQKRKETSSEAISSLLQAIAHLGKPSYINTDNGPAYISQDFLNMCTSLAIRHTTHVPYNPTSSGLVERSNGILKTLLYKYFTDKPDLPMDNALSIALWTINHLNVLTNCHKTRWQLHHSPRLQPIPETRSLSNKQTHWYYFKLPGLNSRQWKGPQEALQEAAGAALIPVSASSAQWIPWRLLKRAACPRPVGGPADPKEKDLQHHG

Structure (SMILES)	HTLV-1 IN strand transfer activity (No drug = 100) (Replicate 1)	HTLV-1 IN strand transfer activity (No drug = 100) (Replicate 2)	HTLV-1 IN strand transfer activity (No drug = 100) (Replicate 3)	IC50 [1]	IC50 [2]	IC50 [3]	IC50 [4]	inhibition of HTLV-1 IN in the screen compared with RAL (each compound at 634 nM)
Nc1c(C(=O)NCc2ccc(F)cc2F)c(=O)n(O)c2ncc(CCC(=O)NCCO)cc12 [XZ448, 4-amino-N-(2,4-difluorobenzyl)-1-hydroxy-6-(3-((2-hydroxyethyl)amino)-3-oxopropyl)-2-oxo-1,2-dihydro-1,8-naphthyridine-3-carboxamide]	5.498%	23.674%	16.1231%	99 nM	227 nM	108 nM	132 ± 29.7 nM	–
Nc1c(C(=O)NCc2ccc(F)cc2F)c(=O)n(O)c2ncc(CCS(=O)(=O)c3ccccc3)cc12 [XZ446, 4-amino-N-(2,4-difluorobenzyl)-1-hydroxy-2-oxo-6-(2-(phenylsulfonyl)ethyl)-1,2-dihydro-1,8-naphthyridine-3-carboxamide]	11.4924%	20.4545%	15.1675%	143 nM	85 nM	126 nM	115 ± 9.5 nM	–
Nc1c(C(=O)NCc2ccc(F)cc2F)c(=O)n(O)c2ncc(CCCO)cc12 [XZ423, 4-amino-N-(2,4-difluorobenzyl)-1-hydroxy-6-(3-hydroxypropyl)-2-oxo-1,2-dihydro-1,8-naphthyridine-3-carboxamide]	5.722%	15.1459%	14.6599%	144 nM	185 nM	155 nM	155 ± 33.5 nM	–
CN(C)C(=O)CCc1cnc2c(c1)c(N)c(C(=O)NCc1ccc(F)cc1F)c(=O)n2O [XZ450, 4-amino-N-(2,4-difluorobenzyl)-6-(3-(dimethylamino)-3-oxopropyl)-1-hydroxy-2-oxo-1,2-dihydro-1,8-naphthyridine-3-carboxamide]	10.2814%	19.561%	9.5729%	115 nM	180 nM	76 nM	120 ± 36.1 nM	–
CC(C)n1c(C(=O)N(C)C)c2c(c(O)c1=O)C(=O)N(Cc1ccc(F)c(Cl)c1)CC2 [XZ236, 6-(3-chloro-4-fluorobenzyl)-4-hydroxy-2-isopropyl-N,N-dimethyl-3,5-dioxo-2,3,5,6,7,8-hexahydro-2,6-naphthyridine-1-carboxamide, reference compound]	9.7581%	22.4849%	26.0036%	130 nM	504 nM	301 nM	322 ± 121 nM	outperformed RAL

From publication PMC8370991, “Structural basis for the inhibition of HTLV-1 integration inferred from cryo-EM deltaretroviral intasome structures” (Nature Communications, 2021)
